Series [1] addresses Mitogen-activated protein kinase kinase kinase 9 (Homo sapiens) (UniProt P80192). Description: Inhibition of human MLK1 at 0.01 uM.
The nature of series [2]: Half life in dog at 5 mg/kg, iv. The series is classed as ADME, organism-based, Canis lupus familiaris. As to conditions: in vivo.
Series [3] concerns the target Tyrosine-protein kinase Fgr (Homo sapiens) (UniProt P09769). The series is described as follows: Inhibition of human Fgr at 0.1 uM.
In series [4] the test system is Receptor-type tyrosine-protein kinase FLT3 (Homo sapiens), P36888 [D835Y]. The series is described as follows: Inhibition of human Flt3 D835Y mutant at 0.01 uM.
The target of series [5] is Serine/threonine-protein kinase PLK3 (Homo sapiens) (UniProt Q9H4B4). Description: Inhibition of human Plk3 at 0.01 uM.
Serine/threonine-protein kinase PLK3 (Homo sapiens), sequence (Q9H4B4 whole entry, looked up): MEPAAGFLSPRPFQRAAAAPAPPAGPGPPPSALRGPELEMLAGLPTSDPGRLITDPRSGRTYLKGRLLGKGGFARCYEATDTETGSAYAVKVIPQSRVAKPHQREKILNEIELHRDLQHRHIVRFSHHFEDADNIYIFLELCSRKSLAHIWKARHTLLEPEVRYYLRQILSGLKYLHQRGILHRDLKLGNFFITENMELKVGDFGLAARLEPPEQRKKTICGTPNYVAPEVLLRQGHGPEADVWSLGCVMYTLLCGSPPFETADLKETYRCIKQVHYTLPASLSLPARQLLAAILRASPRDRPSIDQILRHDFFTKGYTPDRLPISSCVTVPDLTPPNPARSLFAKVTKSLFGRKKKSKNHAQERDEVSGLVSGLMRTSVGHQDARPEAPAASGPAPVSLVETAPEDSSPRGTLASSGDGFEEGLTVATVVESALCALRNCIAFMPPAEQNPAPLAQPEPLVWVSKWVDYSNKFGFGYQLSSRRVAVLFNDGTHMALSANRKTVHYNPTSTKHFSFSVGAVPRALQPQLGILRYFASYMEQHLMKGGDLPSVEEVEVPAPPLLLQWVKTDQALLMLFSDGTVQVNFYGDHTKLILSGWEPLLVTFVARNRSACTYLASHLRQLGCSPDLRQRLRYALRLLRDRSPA

Mitogen-activated protein kinase kinase kinase 9 (Homo sapiens), sequence (P80192 whole entry, looked up): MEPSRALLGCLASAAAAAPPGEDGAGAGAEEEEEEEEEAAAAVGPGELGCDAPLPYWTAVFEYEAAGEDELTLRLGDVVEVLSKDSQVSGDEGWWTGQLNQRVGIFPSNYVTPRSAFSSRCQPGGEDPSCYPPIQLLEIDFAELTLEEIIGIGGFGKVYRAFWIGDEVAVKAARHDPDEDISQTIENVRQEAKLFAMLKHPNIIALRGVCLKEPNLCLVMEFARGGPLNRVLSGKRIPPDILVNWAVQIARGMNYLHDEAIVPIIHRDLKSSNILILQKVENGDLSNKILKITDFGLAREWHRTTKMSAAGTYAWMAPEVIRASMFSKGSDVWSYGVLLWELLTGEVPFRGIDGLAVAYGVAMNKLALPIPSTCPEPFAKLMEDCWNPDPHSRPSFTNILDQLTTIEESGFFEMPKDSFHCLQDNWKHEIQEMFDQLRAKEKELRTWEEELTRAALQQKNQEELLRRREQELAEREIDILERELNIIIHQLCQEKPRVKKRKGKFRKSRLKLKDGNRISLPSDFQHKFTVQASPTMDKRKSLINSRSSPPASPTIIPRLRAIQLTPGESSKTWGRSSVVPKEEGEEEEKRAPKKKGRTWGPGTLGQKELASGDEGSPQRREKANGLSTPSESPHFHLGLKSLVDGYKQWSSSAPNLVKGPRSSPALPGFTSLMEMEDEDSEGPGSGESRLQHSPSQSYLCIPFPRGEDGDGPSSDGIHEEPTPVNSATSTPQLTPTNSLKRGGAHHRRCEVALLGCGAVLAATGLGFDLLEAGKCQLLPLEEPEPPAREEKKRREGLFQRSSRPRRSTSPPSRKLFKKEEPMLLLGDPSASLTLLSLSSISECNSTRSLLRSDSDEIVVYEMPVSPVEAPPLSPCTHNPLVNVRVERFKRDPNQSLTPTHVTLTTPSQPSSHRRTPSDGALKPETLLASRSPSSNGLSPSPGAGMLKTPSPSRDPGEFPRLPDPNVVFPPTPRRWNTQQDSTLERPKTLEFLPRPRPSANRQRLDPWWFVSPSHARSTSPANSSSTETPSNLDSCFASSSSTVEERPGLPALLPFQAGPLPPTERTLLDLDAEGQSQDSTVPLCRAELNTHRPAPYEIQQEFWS
Tyrosine-protein kinase Fgr (Homo sapiens), sequence (P09769 2-529 limits assumed): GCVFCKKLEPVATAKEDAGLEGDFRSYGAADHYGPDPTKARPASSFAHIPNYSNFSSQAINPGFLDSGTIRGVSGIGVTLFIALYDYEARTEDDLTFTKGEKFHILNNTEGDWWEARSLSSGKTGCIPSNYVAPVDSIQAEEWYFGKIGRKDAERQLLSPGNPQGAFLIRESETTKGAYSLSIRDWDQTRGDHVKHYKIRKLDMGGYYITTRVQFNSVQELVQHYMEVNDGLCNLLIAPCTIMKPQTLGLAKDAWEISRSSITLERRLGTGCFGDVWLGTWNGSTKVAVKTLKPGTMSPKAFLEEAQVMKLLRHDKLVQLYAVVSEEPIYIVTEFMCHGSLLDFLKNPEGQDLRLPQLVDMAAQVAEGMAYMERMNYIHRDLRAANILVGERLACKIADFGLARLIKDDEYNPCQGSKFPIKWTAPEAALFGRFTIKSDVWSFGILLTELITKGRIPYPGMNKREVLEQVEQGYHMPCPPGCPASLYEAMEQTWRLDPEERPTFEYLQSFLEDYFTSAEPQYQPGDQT

For `Cc1nn(-c2ccnc(Nc3ccc4c(c3)c(Cl)c(C)n4C)n2)cc1CN1CC(O)C1`, the inhibition in series [1] was 44%; in series [3], under 25%; in series [4], under 50%; in series [5] it was under 50%. Also, the half-life in series [2] is 4.6 h.

(Values after ChEMBL document CHEMBL3621069 (Bioorg Med Chem Lett, 2015).)
